From patent US8354455B2, “Prodrugs containing novel bio-cleavable linkers” (Piramal Enterprises Limited and Apparao Satyam, priority 2004, dated 2013)
Values after ≈ are worked out from the molar mass of the structure shown. Like-named read-outs stand apart in the source and are kept apart here.

Experiments:
[1] = rat, in vivo, po; for salicylate release / absorption profile (in words): both, Sprague-Dawley
[2] = In vitro plasma stability; assay type: in vitro ADME; conditions: rat plasma, 37° C., 30 minutes incubation, HPLC
Text: The compounds were extracted back into acetonitrile with rigorous vortex.

[3] = test system: carrageenan-induced rat paw edema; assay: Carrageenan-induced rat paw edema; assay type: in vivo; conditions: 75 mg/kg equivalent dose of aspirin, p.o.; for Rat paw edema (% inhibition) 1 hour / Rat paw edema (% inhibition) 2 hour / Rat paw edema (% inhibition) 4 hour / Rat paw edema (% inhibition) 6 hour: Mean ± SEM, n = 6
rats [4] = conditions: rat, in vivo, po
convulsant metrazol [5] = assay: Subcutaneous Metrazol Seizure Threshold Test (scMET), Test 1, mice i.p.; assay type: in vivo; conditions: for minimal effective dose: Mus musculus, ip
MES-induced seizures [6] = assay: animal or person; assay type: in vivo, rats
mice = conditions: for toxicity (in words): Test 1, mice i.p.; for Rotorod Toxicity 0.5 h / Rotorod Toxicity 4.0 h: mice, i.p., symbol = dose with toxicity
MES-induced seizures [7] = assay: Maximal Electroshock Test (MES), Test 1, mice i.p.; assay type: in vivo; conditions: for activity in MES model (in words): Test 1, mice i.p.
rats [8] = conditions: rat, in vivo, po, 50 mg/kg
Text: (§1) Acute Toxicity—Minimal Motor Impairment (MMI): To assess a compound's undesirable side effects (toxicity), animals were monitored for overt signs of impaired neurological or muscular function.
(§2) Groups of at least 8 rats received various doses of the candidate compound until at least two points were established between the limits of 100 percent protection or toxicity and zero percent protection or minimal toxicity. The 95 percent confidence limits, slopes of the regression lines and standard errors of the slopes were calculated for each quantitative determination. Rats received test compounds orally.
(§3) This secondary evaluation determines the time to peak effect (TPE), neurotoxicity, median effective dose (ED50) and biological response.

convulsant metrazol [9] = assay: scMET, rats p.o. (Test 3); assay type: in vivo; conditions: Test 3, rats p.o.
Procedure: Subcutaneous Metrazol Seizure Threshold Test (scMET): Subcutaneous injection of the convulsant metrazol produces clonic seizures in laboratory animals. […] Animals were pretreated with various doses of the test compound given by i.p. injection. At the previously determined Time to Peak Effect (TPE) of the test compound, the dose of metrazol which will produce convulsions in 97% of animals (CD97: 85 mg/kg in mice) was injected into a loose fold of skin in the midline of the neck. The animals were placed in isolation cages to minimize stress and observed for the next 30 minutes for the presence or absence of a seizure. An episode of clonic spasms, approximately […], of the fore and/or hind limbs, jaws, or vibrissae is taken as the end point.
Rats received test compounds orally.

rats [10] = assay: Neurotoxicity, rats p.o. (Test 2 and Test 3)
Text: as §1, §2, §3

[11] = Water solubility (HPLC of supernatant); assay type: physicochemical
Procedure: Water solubility: Paclitaxel and its prodrug I-S22-PD2 (2 mg each) were suspended in 1 mL water or PBS-buffer (pH 7.4). The suspensions were sonicated for 15 min and centrifuged (13,000 g) for 10 min. The supernatant was analyzed using HPLC.
HPLC: Waters RP18 column ([…], X-Terra); DAD-HP Agilent (Model 1100); eluent: CH3CN:H2O (gradient 0-100% acetonitrile in 0-15 min). The UV-detector was set at […]. The concentrations were determined by measuring the relative area of paclitaxel or I-S22-PD2. […] (i.e., ˜0.2 mg/mL).

[12] = mice, i.p., 0.5 h, 300 mg/kg (+)
[13] = mice, i.p., 0.5 h, symbol = dose with activity
[14] = mice, i.p., 4.0 h, symbol = dose with activity
[15] = Test 2, rats p.o., 30 mg/kg, 1.00 h

With `CC(=O)Oc1ccccc1C(=O)O` [Aspirin, reference compound] the “salicylate release / absorption profile (in words)” value ([1]; 35 mg/kg) was “highest during 0.5-6.0 hrs”, the “release of parent drug / conversion to salicylate (in words)” value (“release of parent drug / conversion” for short) [2] was “completely metabolized to salicylate” and the “anti-inflammatory activity (in words)” value [3] was “anti-inflammatory activity from 1 hr through 6 hr with peak maximal activity at 4 hr”. The “Rat paw edema (% inhibition) 1 hour” value [3] was 31.0 ± 7.2%, the “Rat paw edema (% inhibition) 2 hour” value [3] was 52.5 ± 3.4% and the “Rat paw edema (% inhibition) 4 hour” value [3] was 60.7 ± 6.9%. For the same molecule, the “Rat paw edema (% inhibition) 6 hour” value [3] was 42.8 ± 6.9% and the “ulcers (in words)” value (rats [4]; 100 mg/kg) was “severe haemorrhagic lesions”.

For `CCOC(=O)CC1(CNC(=O)OCCSSCC(=O)OC)CCCCC1` [I-A1-PD5], the “ScMET (number of animal protected/number of animal tested)” value (convulsant metrazol [5]; [12]) was “(3/5)”, the “ScMET 0.5 h” value (convulsant metrazol [5]; [13]) was “+ (+ = activity or toxicity at 300 mg/kg)” and the “ScMET 4.0 h” value (convulsant metrazol [5]; [14]) was “— (— = no activity or no toxicity at 300 mg/kg)”. For the same molecule, the “MES (number of animal protected/number of animal tested)” value (MES-induced seizures [6]; Test 2, rats p.o., 50 mg/kg, 0.50 h) was 0/4, the “MES (number of animal protected/number of animal tested)” value (MES-induced seizures [6]; Test 2, rats p.o., 50 mg/kg, 1.00 h) was 0/4 and the “MES (number of animal protected/number of animal tested)” value (MES-induced seizures [6]; Test 2, rats p.o., 50 mg/kg, 2.00 h) was 1/4. The “MES (number of animal protected/number of animal tested)” value (MES-induced seizures [6]; Test 2, rats p.o., 50 mg/kg, 4.00 h) was 1/4, the “toxicity (in words)” value (mice) was “no or mild toxicity” and the “Rotorod Toxicity 0.5 h” value (mice) was “+ (+ = activity or toxicity at 300 mg/kg)”. The “Rotorod Toxicity 4.0 h” value (mice) was “— (— = no activity or no toxicity at 300 mg/kg)”, the “activity in MES model (in words)” value (MES-induced seizures [7]) was “active in MES” and the “MES (number of animal protected/number of animal tested)” value (MES-induced seizures [7]; [12]) was “(1/1)”. For the same molecule, the “MES 0.5 h” value (MES-induced seizures [7]; [13]) was “+ (+ = activity or toxicity at 300 mg/kg)”, the “MES 4.0 h” value (MES-induced seizures [7]; [14]) was “— (— = no activity or no toxicity at 300 mg/kg)” and the “Toxicity (number of animals exhibiting toxicity/number of animals tested)” value (rats [8]) was 0/4.

In the case of `CCOC(=O)CC1(CNC(=O)OCCSSCCOC(=O)Nc2nnc(-c3cccc(Cl)c3Cl)c(N)n2)CCCCC1` [I-AA-MPD12], the minimal effective dose (convulsant metrazol [5]; 0.5 h, read-out: ScMET 0.5 h, mice, i.p., 0.5 h, symbol = dose with activity) is reported as greater than 300 mg/kg, the minimal effective dose (convulsant metrazol [5]; 4 h, read-out: ScMET 4.0 h, mice, i.p., 4.0 h, symbol = dose with activity) is reported as greater than 300 mg/kg and the ED50 (MES-induced seizures [6]; Rattus norvegicus, po, MES model, rats p.o., at time of peak effect) is reported as 17.1 mg/kg. For the same molecule, the “MES (number of animal protected/number of animal tested)” value (MES-induced seizures [6]; [15]) was 0/4, the “MES (number of animal protected/number of animal tested)” value (MES-induced seizures [6]; Test 3 ED50 quantification, rats p.o., 6 h, 60 mg/kg) was 7/8 and the “MES (number of animal protected/number of animal tested)” value (MES-induced seizures [6]; Test 3 time to peak effect, rats p.o., 15 mg/kg, 8.0 h) was 1/4. For the same molecule, the “MES (number of animal protected/number of animal tested)” value (MES-induced seizures [6]; Test 3 time to peak effect, rats p.o., 30 mg/kg, 0.5 h) was 0/4, the “MES (number of animal protected/number of animal tested)” value (MES-induced seizures [6]; Test 3 time to peak effect, rats p.o., 30 mg/kg, 1.0 h) was 0/4 and the “MES (number of animal protected/number of animal tested)” value (MES-induced seizures [6]; Test 3 time to peak effect, rats p.o., 30 mg/kg, 2.0 h) was 1/4. For the same molecule, the “MES (number of animal protected/number of animal tested)” value (MES-induced seizures [6]; Test 3 time to peak effect, rats p.o., 30 mg/kg, 4.0 h) was 3/4, the “MES (number of animal protected/number of animal tested)” value (MES-induced seizures [6]; Test 3 time to peak effect, rats p.o., 30 mg/kg, 8.0 h) was 4/4 and the “MES (number of animal protected/number of animal tested)” value (MES-induced seizures [6]; Test 3 time to peak effect, rats p.o., 30 mg/kg, 24 h) was 2/4. The “ScMET (50 mg/kg) (number of animal protected/number of animal tested)” value (convulsant metrazol [9]; 1.0 h) was 1/4, the “ScMET (50 mg/kg) (number of animal protected/number of animal tested)” value (convulsant metrazol [9]; 2.0 h) was 0/4 and the “ScMET (50 mg/kg) (number of animal protected/number of animal tested)” value (convulsant metrazol [9]; 4.0 h) was 0/4. For the same molecule, the “ScMET (50 mg/kg) (number of animal protected/number of animal tested)” value (convulsant metrazol [9]; 6.0 h) was 1/4, the “ScMET (50 mg/kg) (number of animal protected/number of animal tested)” value (convulsant metrazol [9]; 8.0 h) was 2/4 and the “ScMET (50 mg/kg) (number of animal protected/number of animal tested)” value (convulsant metrazol [9]; 24 h) was 0/4. The “Toxicity (number of animals exhibiting toxicity/number of animals tested)” value (rats [10]; [15]) was 0/4, the “Toxicity (number of animals exhibiting toxicity/number of animals tested)” value (rats [10]; Test 2, rats p.o., 30 mg/kg, 2.00 h) was 0/4 and the “Toxicity (number of animals exhibiting toxicity/number of animals tested)” value (rats [10]; Test 2, rats p.o., 30 mg/kg, 4.00 h) was 0/4. For the same molecule, the “Toxicity (number of animals exhibiting toxicity/number of animals tested)” value (rats [10]; Test 3, rats p.o., 50 mg/kg, 1.0 h) was 0/4 (50), the “Toxicity (number of animals exhibiting toxicity/number of animals tested)” value (rats [10]; Test 3, rats p.o., 50 mg/kg, 2.0 h) was 0/4 (50) and the “Toxicity (number of animals exhibiting toxicity/number of animals tested)” value (rats [10]; Test 3, rats p.o., 50 mg/kg, 4.0 h) was 0/4 (50). The “Toxicity (number of animals exhibiting toxicity/number of animals tested)” value (rats [10]; Test 3, rats p.o., 50 mg/kg, 6.0 h) was 0/4 (50), the “Toxicity (number of animals exhibiting toxicity/number of animals tested)” value (rats [10]; Test 3, rats p.o., 50 mg/kg, 8.0 h) was 0/4 (50) and the “Toxicity (number of animals exhibiting toxicity/number of animals tested)” value (rats [10]; Test 3, rats p.o., 50 mg/kg, 24 h) was 0/4 (50). The “toxicity (in words)” value (mice) was “no or mild toxicity”, the “Rotorod Toxicity 0.5 h” value (mice) was “— (— = no activity or no toxicity at 300 mg/kg)” and the “Rotorod Toxicity 4.0 h” value (mice) was “— (— = no activity or no toxicity at 300 mg/kg)”. The minimal effective dose (MES-induced seizures [7]; Mus musculus, ip, 0.5 h, read-out: MES 0.5 h, mice, i.p., 0.5 h, symbol = dose with activity) was greater than 300 mg/kg, the “activity in MES model (in words)” value (MES-induced seizures [7]) was “active in MES” and the “MES, at 6 hours after dosing” value (MES-induced seizures [7]; mice, i.p., 6 h (footnotes g, m; printed in 4.0 h column)) was “++ (++ = activity or toxicity at 100 mg/kg)”.

With `CC(=O)Oc1ccccc1C(=O)OCCSSCCO[N+](=O)[O-]` [I-C1-NOPD4] the “salicylate release / absorption profile (in words)” value ([1]; 35 mg/kg) was “released in a sustained and controlled manner starting from 1 hour through 12 hours”, the “release of parent drug / conversion” value [2] was “converting to the expected metabolite (salicylate)” and the “anti-inflammatory activity (in words)” value [3] was “significant activity during the first two hours”. For the same molecule, the “Rat paw edema (% inhibition) 1 hour” value [3] was 42.4 ± 13.3%, the “Rat paw edema (% inhibition) 2 hour” value [3] was 44.9 ± 12.9% and the “Rat paw edema (% inhibition) 4 hour” value [3] was 24.3 ± 7.7%. For the same molecule, the “Rat paw edema (% inhibition) 6 hour” value [3] was 8.6 ± 5.1% and the “ulcers (in words)” value (rats [4]; 100 mg/kg) was “none of the animals treated with the test compounds showed any signs of development of ulcers”.

For `CC(=O)Oc1ccccc1C(=O)NC(=O)OCCSSCCO[N+](=O)[O-]` [I-C1-NOPD5A], the “release of parent drug / conversion” value [2] was “converting to the expected metabolite (salicylate)”, the “anti-inflammatory activity (in words)” value [3] was “negligible anti-inflammatory activity” and the “ulcers (in words)” value (rats [4]; 200 mg/kg) was “none of the animals treated with the test compounds showed any signs of development of ulcers”.

In the case of `CC(=O)Oc1ccccc1C(=O)[N-]C(=O)OCCSSCCO[N+](=O)[O-].[Na+]` [I-C1-NOPD5B], the “bioavailability compared with parent drug (in words)” value [1] is reported as “as bioavailable as its parent drug” and the “ulcers (in words)” value (rats [4]; 200 mg/kg) is reported as “none of the animals treated with the test compounds showed any signs of development of ulcers”.

For `CC(=O)Oc1ccccc1C(=O)NCCSSCCO[N+](=O)[O-]` [I-C1-NOPD6], the “prodrug or salicylate found in plasma (in words)” value ([1]; 35 mg/kg) was “neither the prodrug nor the salicylate was found in the plasma” and the “ulcers (in words)” value (rats [4]; 100 mg/kg) was “none of the animals treated with the test compounds showed any signs of development of ulcers”.

With `CC(=O)O[C@H]1C(=O)[C@@]2(C)C([C@H](OC(=O)c3ccccc3)[C@]3(O)C[C@H](OC(=O)[C@H](OC(=O)OCCSSCCOC(=O)CCC(=O)O)[C@@H](NC(=O)c4ccccc4)c4ccccc4)C(C)=C1C3(C)C)[C@]1(OC(C)=O)CO[C@@H]1C[C@@H]2O` (stereo partly shown) [I-S22-PD2] the solubility at 15 min ([11]; aqueous buffer, thermodynamic from solid, 2 mg suspended in 1 mL water or PBS-buffer (pH 7.4), sonicated, centrifuged) was roughly 200 µg/mL (≈ 176 µM) and the “solubility relative to paclitaxel” value ([11]; water or PBS-buffer (pH 7.4)) was 20 times.
